Reference: patent US12466817B2, “Pyridine derivative and application thereof” (Nicoya Therapeutics (Shanghai) Co., Ltd, priority 2020, dated 2025)

Tests used:
CCR2 = target: T1, CCR2 (Homo sapiens, UniProt P41597); assay: CCR2 FLIPR Calcium assay (intracellular calcium signaling); type: cell-based; conditions: HEK293 host cells, clone C7; agonist MCP-1; Fluo-4 calcium signal
T1 construct: expressed in transfected cells; host or cells: HEK293, clone C7, passage P6
Method: (§1) The inhibitory effects of the compounds on CCR2 and CCR5 receptors were evaluated by detecting intracellular calcium signaling changes by FLIPR Calcium assay, using the IC50 values of the compounds as indicators.
(§2) 1. Cell lines: The cells were seeded and incubated overnight at 37° C. in a 5% CO2 incubator CCR2/CCR5 density: 1 M (20 k/well)
(§3) 2. Reagent: Fluo-4 Direct, (Invitrogen, Cat #F10471)
(§4) The compound was prepared by dissolving in DMSO to a 10 mM solution, and the compound solution was placed in a nitrogen chamber.
(§5) Preparation of probenecid in FLIPR assay buffer: 1 mL of FLIPR assay buffer was added to 77 mg of probenecid to make a 250 mM solution. The solution was prepared every day to keep fresh.
(§6) 2× (8 μM) Fluo-4 Direct™ loading buffer (10 mL of each)
(§7) 0.2 mL of probenecid was added to each 10 mL of Fluo-Direct. The final measured concentration was 2.5 mM MCP-1 was diluted in FLIPR assay buffer 1:2 for 10 spots, starting at 0.5 μM (eventually to […]). RANTES was diluted in FLIPR assay buffer 1:3 for 10 spots, starting at 0.5 μM (eventually to […]). 20 μL of serially diluted compound buffer was added to each well of the DRC plate.
(§8) The standard compound was diluted in DMSO 1:3 for 11 points, starting at 1 mM.
(§9) The test compound was diluted in DMSO 1:3 for 11 spots, starting at 2 mM. 250 nL of compound solution was transferred to cell plates using Echo (Greiner #781946) c) The cell plate was taken from the incubator and 20 μL of 2× Fluo-4 Direct no wash loading buffer was gently dispensed into a 384-well cell culture plate using a pipette. The volume in the final cell plate was 40 μL […]
(§10) d) Incubation was conducted at 37° C. 5% CO2 for 50 minutes, at room temperature for 10 minutes e) The cell plate was taken from the incubator and placed in the FLIPR. The composite plate and pipette tip box were placed in the FLIPR
(§11) 5) The “Max-Min” was calculated from Read 90 to the maximum allowed. EC80 values for each cell line were calculated using FLIPR
(§12) 6) Agonist reference compound at 5 times EC80 concentration was prepared 2) 10 μL of agonist reference compound at 5 times EC80 concentration was transferred from the composite plate to the cell plate.
(§13) 3) Fluorescence signals were read.
(§14) 4) The “Max-Min” was calculated from Read 90 to the maximum allowed h) Data was analyzed by using Prism, the IC50 values of the compounds were calculated.

CCR5 = target: T2, CCR5 (Homo sapiens, UniProt P51681); assay: CCR5 FLIPR Calcium assay (intracellular calcium signaling); type: cell-based; conditions: HEK293 host cells, clone C13; agonist RANTES; Fluo-4 calcium signal
T2 construct: expressed in transfected cells; host or cells: HEK293, clone C13, passage P4
Method: as §1, §2, §3, §4, §5, §6, §7, §8, §9, §10, §11, §12, §13, §14

[1] = Comparative pharmacokinetic test in mice; type: in vivo, C57BL/6 male mice; conditions: mice
Method: C57BL/6 male mice were used as test animals in the present study, and the plasma drug concentrations of the test compound WX009 and the reference compound in mice by intravenous administration or oral administration were quantified by LC/MS/MS method at different time points respectively to evaluate the pharmacokinetic characteristics of the two test drugs in mice.
A clarified solution of the test compound was injected via tail vein into C57BL/6 mice (overnight fasting, 7-10 weeks old), and the test compound was given by gavage into C57BL/6 mice (overnight fasting, 7-10 weeks old). Approximately 30 μL of blood was collected from the jugular or tail vein at 0.0833, 0.25, 0.5, 1, 2, 4, 6, 8, and 24 hours after administration, and placed in anticoagulation tubes added with EDTA-K2, then centrifuged at 4° C. for 15 minutes at 3000 g to give the plasma. Plasma drug concentration was determined by LC-MS/MS, and relevant pharmacokinetic parameters were calculated using WinNonlin™ Version 6.3 (Pharsight, Mountain View, CA) pharmacokinetic software with a non-compartmental model linear logarithmic trapezoidal method.

CYP3A4 = target: T3, CYP3A4 (Homo sapiens, UniProt P08684); assay: Inhibition of human liver microsomal CYP3A4 activity; type: in vitro ADME; conditions: human liver microsomes, conclusion
T3 construct: from tissue; host or cells: human liver microsomes
Method: A total of five specific probe substrates for the five isozymes of CYP, phenacetin (CYP1A2), diclofenac (CYP2C9), (S′)-mephenytoin (CYP2C19), dextromethorphan ([…]), and midazolam (CYP3A4), were incubated respectively with human liver microsomes and the test compounds, and the reaction was initiated by the addition of reduced nicotinamide adenine dinucleotide phosphate (NADPH), and the samples were treated and the concentrations of the five metabolites produced by the specific substrates, acetaminophen, 4′-hydroxydiclofenac, 4′-hydroxymephenytoin, dextrorphan and 1′-hydroxymidazolam were measured by liquid chromatography tandem mass spectrometry (LC-MS/MS) after the end of the reaction, and the corresponding half maximal inhibitory concentrations (IC50) were calculated.

T3 sequence (P08684 whole entry): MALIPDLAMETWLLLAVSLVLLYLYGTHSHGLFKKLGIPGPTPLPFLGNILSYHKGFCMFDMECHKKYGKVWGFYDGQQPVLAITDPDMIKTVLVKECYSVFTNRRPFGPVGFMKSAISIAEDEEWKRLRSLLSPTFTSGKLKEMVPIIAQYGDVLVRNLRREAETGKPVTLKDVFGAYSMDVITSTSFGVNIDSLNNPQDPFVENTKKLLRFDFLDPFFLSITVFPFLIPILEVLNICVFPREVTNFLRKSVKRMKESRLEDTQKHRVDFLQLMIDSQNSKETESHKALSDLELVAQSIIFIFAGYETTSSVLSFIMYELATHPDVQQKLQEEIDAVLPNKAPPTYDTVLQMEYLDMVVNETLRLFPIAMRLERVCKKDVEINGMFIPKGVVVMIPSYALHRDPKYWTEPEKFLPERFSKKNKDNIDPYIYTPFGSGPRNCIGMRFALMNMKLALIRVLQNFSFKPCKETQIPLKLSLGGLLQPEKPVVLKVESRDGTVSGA
T1 sequence (P41597 whole entry, species assumed): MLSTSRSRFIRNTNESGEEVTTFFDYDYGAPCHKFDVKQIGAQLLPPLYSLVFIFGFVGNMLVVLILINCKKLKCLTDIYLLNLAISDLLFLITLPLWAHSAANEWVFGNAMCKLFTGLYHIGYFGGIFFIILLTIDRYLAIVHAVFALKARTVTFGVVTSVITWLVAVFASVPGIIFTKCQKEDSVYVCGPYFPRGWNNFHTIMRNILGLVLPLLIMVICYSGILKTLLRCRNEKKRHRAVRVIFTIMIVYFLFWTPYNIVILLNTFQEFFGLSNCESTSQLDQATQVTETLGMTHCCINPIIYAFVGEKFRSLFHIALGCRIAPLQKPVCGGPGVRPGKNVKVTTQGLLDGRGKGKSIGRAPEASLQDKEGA
T2 sequence (P51681 whole entry, species assumed): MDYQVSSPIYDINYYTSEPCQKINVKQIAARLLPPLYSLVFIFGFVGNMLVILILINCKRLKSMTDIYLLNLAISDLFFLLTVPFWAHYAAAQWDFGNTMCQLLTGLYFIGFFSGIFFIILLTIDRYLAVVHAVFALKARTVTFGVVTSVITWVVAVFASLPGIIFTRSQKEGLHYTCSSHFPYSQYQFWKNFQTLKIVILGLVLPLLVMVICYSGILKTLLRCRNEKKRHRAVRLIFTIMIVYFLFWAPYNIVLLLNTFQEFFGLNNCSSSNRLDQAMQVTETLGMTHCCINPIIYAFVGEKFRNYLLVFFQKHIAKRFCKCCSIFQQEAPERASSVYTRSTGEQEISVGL

Molecule: CCCCOCCOc1ccc(-c2ccc3c(c2)C=C(C(=O)Nc2ccc([S+]([O-])Cc4cnccc4CC)cc2)CCCN3CC2CCCO2)cc1 (single isomer, unassigned) [WX005]
- IC50 (CCR2): 20.9 nM
- IC50 (CCR5): 8.9 nM

Molecule: CCCCOCCOc1ccc(-c2ccc3c(c2)C=C(C(=O)Nc2ccc([S+]([O-])Cc4c(CC)ccnc4C)cc2)CCCN3CC2CCCO2)cc1 (single isomer, unassigned) [WX008]
- IC50 (CCR2): 15.2 nM

Molecule: CCCCOCCOc1ccc(-c2ccc3c(c2)C=C(C(=O)Nc2ccc([S+]([O-])Cc4c(C)ccnc4C)cc2)CCCN3CC2CCOCC2)cc1 (single isomer, unassigned) [WX019]
- IC50 (CCR5): 3.9 nM

Molecule: CCCCOCCOc1ccc(-c2ccc3c(c2)/C=C(/C(=O)Nc2ccc([S@@+]([O-])Cc4cncn4CCC)cc2)CCCN3CC(C)C)cc1 [(Cenicriviroc), Cenicriviroc, reference compound]
- half-life ([1]; male, C57BL/6, mouse, plasma, intravenous injection 2 mg/kg): 3.55 h
- clearance ([1]; male, C57BL/6, mouse, plasma, intravenous injection 2 mg/kg, read-out: Plasma clearance rate): 2.28 mL/min/kg
- bioavailability ([1]; male, C57BL/6, mouse, plasma, oral 10 mg/kg): 6.02%
- Area under the time-concentration curve (0-inf) ([1]; oral 10 mg/kg): 6.401 µM·h
- Peak concentration ([1]; oral 10 mg/kg): 1533 nM
- Peak time ([1]; oral 10 mg/kg): 1.0 h

Molecule: CCCCOCCOc1ccc(-c2ccc3c(c2)/C=C(/C(=O)Nc2ccc([S+]([O-])Cc4c(C)ccnc4C)cc2)CCCN3CC2CCCO2)cc1 (single isomer, unassigned) [WX020]
- IC50 (CCR5): 5.61 nM

Molecule: CCCCOCCOc1ccc(-c2ccc3c(c2)/C=C(/C(=O)Nc2ccc([S@+]([O-])Cc4c(CC)ccnc4C)cc2)CCCN3C[C@H]2CCCO2)cc1 (single isomer, unassigned) [WX010]
- IC50 (CCR2): 13.7 nM

Molecule: CCCCOCCOc1ccc(-c2ccc3c(c2)/C=C(/C(=O)Nc2ccc([S+]([O-])Cc4cnc(C)cc4C)cc2)CCCN3CC2CCCO2)cc1 (single isomer, unassigned) [WX024]
- IC50 (CCR5): 11.3 nM

Molecule: CCCCOCCOc1ccc(-c2ccc3c(c2)/C=C(/C(=O)Nc2ccc([S@+]([O-])Cc4c(CC)ccnc4CC)cc2)CCCN3CC2CCOCC2)cc1 [WX025]
- IC50 (CCR2): 2.26 nM
- IC50 (CCR5): 4.26 nM

Molecule: CCCCOCCOc1ccc(-c2ccc3c(c2)/C=C(/C(=O)Nc2ccc([S+]([O-])Cc4c(C)ccnc4C)cc2)CCCN3CC2CCCO2)cc1 (single isomer, unassigned) [WX021]
- IC50 (CCR5): 5.89 nM

Molecule: CCCCOCCOc1ccc(-c2ccc3c(c2)/C=C(/C(=O)Nc2ccc([S@+]([O-])Cc4c(CC)ccnc4C)cc2)CCCN3C[C@H]2CCCO2)cc1 (single isomer, unassigned) [WX011]
- IC50 (CCR2): 1.15 nM
- IC50 (CCR5): 3.79 nM

Molecule: CCCCOCCOc1ccc(-c2ccc3c(c2)/C=C(/C(=O)Nc2ccc([S@+]([O-])Cc4cnc(C)cc4CC)cc2)CCCN3C[C@H]2CCCO2)cc1 (single isomer, unassigned) [WX017]
- IC50 (CCR2): 34 nM

Molecule: CCCCOCCOc1ccc(-c2ccc3c(c2)C=C(C(=O)Nc2ccc([S+]([O-])Cc4cnccc4CC)cc2)CCCN3CC2COCCO2)cc1 (single isomer, unassigned) [WX002]
- IC50 (CCR2): 19.5 nM
- IC50 (CCR5): 7.47 nM

Molecule: CCCCOCCOc1ccc(-c2ccc3c(c2)/C=C(/C(=O)Nc2ccc([S@+]([O-])Cc4cnc(C)cc4CC)cc2)CCCN3C[C@H]2CCCO2)cc1 (single isomer, unassigned) [WX016]
- IC50 (CCR2): 1.75 nM
- IC50 (CCR5): 16.4 nM

Molecule: CCCCOCCOc1ccc(-c2ccc3c(c2)C=C(C(=O)Nc2ccc([S+]([O-])Cc4c(C)ccnc4C)cc2)CCCN3CC2CCOCC2)cc1 (single isomer, unassigned) [WX018]
- IC50 (CCR5): 15.2 nM

Molecule: CCCCOCCOc1ccc(-c2ccc3c(c2)C=C(C(=O)Nc2ccc([S+]([O-])Cc4cnc(C)cc4CC)cc2)CCCN3CC2CCOCC2)cc1 (single isomer, unassigned) [WX013]
- IC50 (CCR2): 19.9 nM

Molecule: CCCCOCCOc1ccc(-c2ccc3c(c2)C=C(C(=O)Nc2ccc([S+]([O-])Cc4cnc(C)cc4CC)cc2)CCCN3CC2CCCO2)cc1 (single isomer, unassigned) [WX014]
- IC50 (CCR2): 1.39 nM
- IC50 (CCR5): 12.1 nM

Molecule: CCCCOCCOc1ccc(-c2ccc3c(c2)C=C(C(=O)Nc2ccc([S+]([O-])Cc4cnccc4CC)cc2)CCCN3CC2COCCO2)cc1 (single isomer, unassigned) [WX003]
- IC50 (CCR2): 16.5 nM
- IC50 (CCR5): 11.7 nM

Molecule: CCCCOCCOc1ccc(-c2ccc3c(c2)C=C(C(=O)Nc2ccc([S+]([O-])Cc4c(CC)ccnc4C)cc2)CCCN3CC2CCOCC2)cc1 (single isomer, unassigned) [WX006]
- IC50 (CCR2): 15.9 nM

Molecule: Cenicriviroc [(Cenicriviroc), reference compound]
- Inhibition of CYP3A4 (in words) (CYP3A4; listed as reference compound): strong inhibitory effect
- Inhibition of CYP3A4 (in words) (CYP3A4; listed as reference compounds): strong inhibition

Molecule: CCCCOCCOc1ccc(-c2ccc3c(c2)/C=C(/C(=O)Nc2ccc([S+]([O-])Cc4cnccc4CC)cc2)CCCN3CC2CCOCC2)cc1 (stereo not shown) [WX001]
- IC50 (CCR2): 17.6 nM
- IC50 (CCR5): 4.36 nM

Molecule: CCCCOCCOc1ccc(-c2ccc3c(c2)/C=C(/C(=O)Nc2ccc([S@@+]([O-])Cc4cncn4CCC)cc2)CCCN3CC2CC2)cc1 [Reference A, reference compound]
- Inhibition of CYP3A4 (in words) (CYP3A4): strong inhibition

Molecule: CCCCOCCOc1ccc(-c2ccc3c(c2)C=C(C(=O)Nc2ccc([S+]([O-])Cc4cnccc4CC)cc2)CCCN3CC2CCCO2)cc1 (single isomer, unassigned) [WX004]
- IC50 (CCR2): 19.4 nM
- IC50 (CCR5): 6.47 nM

Molecule: CCCCOCCOc1ccc(-c2ccc3c(c2)/C=C(/C(=O)Nc2ccc([S+]([O-])Cc4cnc(C)cc4C)cc2)CCCN3CC2CCOCC2)cc1 (stereo not shown) [WX022]
- IC50 (CCR5): 13.6 nM

Molecule: CCCCOCCOc1ccc(-c2ccc3c(c2)C=C(C(=O)Nc2ccc([S+]([O-])Cc4cnc(C)cc4CC)cc2)CCCN3CC2CCCO2)cc1 (single isomer, unassigned) [WX015]
- IC50 (CCR2): 21.4 nM

Molecule: CCCCOCCOc1ccc(-c2ccc3c(c2)/C=C(/C(=O)Nc2ccc([S+]([O-])Cc4cnc(C)cc4C)cc2)CCCN3CC2CCCO2)cc1 (single isomer, unassigned) [WX023]
- IC50 (CCR5): 9.71 nM
